# According to ChEMBL document CHEMBL1138660, “Contribution of ionization and lipophilicity to drug binding to albumin: a preliminary step toward biodistribution prediction” (J Med Chem, 2004):
# What was measured:
# physchem [1] = settings: buffer, pH 7.4
# Description: Distribution coeeficient for the compound at pH7.4 (Log D7.4)
# [2] = human, plasma
# physchem [3] = assay: physchem
# Description: pKa value of the compound
logD (physchem [1]),B(DPB) [2] [%],pKa (physchem [3]),Compound
-0.48,3.9,8.48,CNC(=C[N+](=O)[O-])NCCSCc1ccc(CN(C)C)o1 [RANITIDINE]
-0.32,89.6,4.95,CN1C(C(=O)Nc2ccccn2)=C(O)c2sccc2S1(=O)=O [TENOXICAM]
4.25,93.4,7.17,COC(=O)C1=C(C)NC(C)=C(C(=O)OCCN(C)Cc2ccccc2)C1c1cccc([N+](=O)[O-])c1 (centres undefined) [NICARDIPINE]

# Further lines, the compound ahead of its results:
Compound,logD (physchem [1]),B(DPB) [2] [%],pKa (physchem [3])
COc1ccc2cc([C@H](C)C(=O)O)ccc2c1 [NAPROXEN],,> 95,
NS(=O)(=O)c1cc(C(=O)O)c(NCc2ccco2)cc1Cl [FUROSEMIDE],,87.2,
CCCC(=O)Nc1ccc(OCC(O)CNC(C)C)c(C(C)=O)c1 (centres undefined) [ACEBUTOLOL],,0,
CN(Cc1cnc2nc(N)nc(N)c2n1)c1ccc(C(=O)N[C@@H](CCC(=O)O)C(=O)O)cc1 [METHOTREXATE],-2.52,49.9,
